Test results taken from US5866548A, “Caged membrane-permeant inositol phosphates” (priority 1996, dated 1999).
Entries after “also recorded” stand apart in the source; their conditions may differ.

Experiments:
[1] = biological target: cAMP-dependent kinase type I (FICRhR) (Bos taurus, UniProt P00514); format: biochemical
Description: When PKA is doubly labeled with fluorescein on its catalytic subunits and rhodamine on its regulatory subunits to produce FICRhR, fluorescence energy transfer from the fluorescein to rhodamine occurs in the holoenzyme complex but is disrupted upon activation and dissociation of the subunits. The change in the ratio of fluorescein to rhodamine emissions parallels the increase in kinase activity and can be nondestructively imaged in single cells. REF-52 fibroblasts were microinjected with FICRhR and emission ratio images recorded at room temperature as previously described (27).

angelfish melanophores = assay: Pigment dispersion in fish dermal melanophores; format: cell-based, angelfish (Pterophyllum scalare); details: for reversibility of dispersion: removal of compound and epinephrine
Description: Melanophores permit a visual single-cell assay for the ability of cAMP analogs to enter cells and mimic cAMP actions. The melanophores were isolated on angelfish scales and the epidermis was stripped off. […] Dispersion was just detectable at 1 μM and half-maximal near 10 μM (FIG. 3A). […] The preceding examples are summarized in (64).

intestinal cell line T84 = assay: cells; format: cell-based; details: for EC50: 0.2 h, T84, ISC 12 min after addition, read-out: EC50 (chloride secretion)
Description: A convenient test system is the intestinal cell line T84, in which chloride secretion can be continuously monitored by mounting confluent monolayers of cells in Ussing chambers (42).

[2] = tested on: cAMP-dependent protein kinase (PKA); format: cell-based
Membrane permeability = format: in vitro ADME
1321N1 astrocytoma cells [3] = assay: [Ca2+]i response before and after UV uncaging, fluo-3; format: cell-based
Description: (b) Same experiment as (a) except done in Ca^2+ free medium (DPBS, O Ca^2+, 0.5 mM EGTA). UV exposure of the cells treated with IP3 -CPM still gave the same response, showing that the [Ca^2+ ]i increase resulted from the release of Ca^2+ from internal stores. […] The cells were loaded with fluo-3/AM. During the experiment the cells were bathed in HBS buffered with 20 mM Hepes at pH 7.4 and supplemented with 2 g/L glucose.
The [Ca^2+ ]i was monitored using the calcium indicator fluo-3 rather than fura-2 to keep the excitation wavelength of the indicator (490 nm) far from the uncaging wavelength (360 nm) of DMNB group. […] Compared to the photolyzing set-up (direct illumination by a hand mercury lamp) used for the IP3 -binding assay, the optical throughput from the source lamp to the specimen is much higher in a microscope, so 10 seconds (as opposed to 2 hours in IP3 binding assay) of photolysis was sufficient to produce enough IP3 to elicit [Ca^2+ ]i increase. The same amount of UV alone had no effect at all on [Ca^2+ ]i in cells not treated with IP3 -CPM. After recovering from uncaging of IP3 -CPM, the cells responded to subsequent carbachol and thapsigargin stimulation normally.
This confirmed that the [Ca^2+ ]i increase due to uncaging of IP3 -CPM resulted from internal Ca^2+ release, which was consistent with the normal mechanism of IP3 action.

1321N1 astrocytoma cells [4] = assay: as above; format: cell-based; details: with extracellular Ca2+
[5] = tested on: P388D1 macrophage-like cells; assay: as above; format: cell-based; details: for [Ca2+]i after UV (360 nm, 10 s): 20 μM
Description: The cells were loaded with fluo-3/AM. During the experiment the cells were bathed in HBS buffered with 20 mM Hepes at pH 7.4 and supplemented with 2 g/L glucose.
Another example was carried out in P388D1 macrophage-like cells.
Studies by Asmis et al. (92) have shown that, in P388D1 macrophage-like cells, PAF stimulated PGE2 production is mediated through two separate signals: IP3 induced [Ca^2+ ]i increase and another unidentified signal. IP3 -CPM might serve as a new tool for detailed study of PGE2 formation and AA release in relation to IP3 and [Ca^2+ ]i in these cells. One of the major advantages of using permeant IP3 derivatives is that experiments can be easily carried out in a population of cells, which is required for the measurement of AA release and PGE2 formation.

Chemical stability = format: physicochemical
[6] = tested on: human embryonic kidney cells (HEK cells); assay: [Ca2+]i response on flash photolysis of loaded cells; format: cell-based
Description: In human embryonic kidney cells (HEK cells), the extracellular IP3 -CPM was washed away after the cells had been loaded with 50 μM of IP3 -CPM for 20 minutes. […] Cells in the same dish which had not been exposed to UV light were kept in the dark for over 6 hours. […] However, pretreatment of IP3 -CPM with acetic acid will unmask the 3-hydroxyl and enable the intracellular phosphorylation of delivered IP3.

[7] = 20 μM extracellular, about/over 5 min

cAMP-dependent kinase type I (FICRhR), sequence (P00514 whole entry): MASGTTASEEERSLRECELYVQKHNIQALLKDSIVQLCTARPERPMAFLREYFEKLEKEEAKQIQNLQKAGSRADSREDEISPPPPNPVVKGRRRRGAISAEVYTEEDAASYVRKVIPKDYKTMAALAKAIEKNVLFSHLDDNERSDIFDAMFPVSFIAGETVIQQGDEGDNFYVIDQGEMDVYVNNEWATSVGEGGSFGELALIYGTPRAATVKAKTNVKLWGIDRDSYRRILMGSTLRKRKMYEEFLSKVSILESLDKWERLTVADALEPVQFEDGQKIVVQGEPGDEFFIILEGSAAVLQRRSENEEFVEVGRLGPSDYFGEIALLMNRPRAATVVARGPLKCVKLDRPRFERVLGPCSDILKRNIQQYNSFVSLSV

CCCC(=O)Nc1ncnc2c1ncn2[C@@H]1O[C@@H]2COP(=O)(O)O[C@H]2[C@H]1OC(=O)CCC [Bt2 cAMP, N^6,O^2' -dibutyryl cAMP, reference compound]
potency relative to cAMP ([1]; in vitro binding to FICRhR): roughly 1/100
pigment dispersion (angelfish melanophores; 1 mM): unable to cause any detectable dispersion
EC50 (intestinal cell line T84): 400 µM
delay and overall time course of PKA activation (in words) ([2]; REF-52, extracellular): Much the same delay and overall time course
membrane permeability (in words) (Membrane permeability): poor permeability

CCCC(=O)Nc1ncnc2c1ncn2[C@@H]1O[C@@H]2COP(=O)(OCOC(C)=O)O[C@H]2[C@H]1OC(=O)CCC (some centres unmarked) [Bt2 cAMP/AM, N^6,O^2' -Dibutyryl Adenosine 3',5'-cyclic Monophosphate Acetoxymethyl Ester]
separation of the subunits of FICRhR (in words) ([1]; in vitro, 10 μM): no separation of the subunits
increase in potency by AM ester group vs Bt2 cAMP (angelfish melanophores): more than 1000
pigment dispersion (angelfish melanophores; 100 μM): essentially complete dispersal
reversibility of dispersion (angelfish melanophores; 100 μM): easily reversed
reversibility of dispersion (angelfish melanophores; 1 mM): could not be readily reversed
onset of dispersion (angelfish melanophores; 1 mM, vs 100 μM): slightly faster onset of action
EC50 (intestinal cell line T84): 2 µM
increase in potency by acetoxymethyl group vs Bt2 cAMP (intestinal cell line T84; T84): 200 fold
kinetics of activation of chloride secretion (in words) (intestinal cell line T84; T84, Bt2 cAMP/AM vs Bt2 cAMP): essentially indistinguishable kinetics of activation
onset of separation of regulatory and catalytic subunit of FICRhR after addition ([2]; REF-52, extracellular): roughly 2 min
plateau, % of the maximal change in fluorescence ratio ([2]; REF-52, extracellular 1 μM): over 50%
change in fluorescence ratio (PKA activation) ([2]; REF-52, extracellular 10 μM, within 15 min): maximal change in fluorescence ratio within 15 min

CCC(=O)OCOP(=O)(OCOC(=O)CC)O[C@@H]1[C@@H](OCc2cc(OC)c(OC)cc2[N+](=O)[O-])[C@H](OP(=O)(OCOC(=O)CC)OCOC(=O)CC)[C@@H]2OC(OC)O[C@@H]2[C@H]1OP(=O)(OCOC(=O)CC)OCOC(=O)CC (stereo partly drawn) [IP3 -CPM, D-2,3-O-methoxymethylene-6-O-(4,5-dimethoxy-2-nitrobenzyl)-myo-Inositol 1,4,5-trisphosphate hexakis(propionyloxymethyl)ester]
[Ca2+]i before UV (1321N1 astrocytoma cells [3]; [7]): no effect on [Ca^2+ ]i
[Ca2+]i after UV (360 nm, 10 s) (1321N1 astrocytoma cells [3]; 20 μM, Ca2+ free medium (0.5 mM EGTA), listed as IP3 -CPM (V-1)): same response
extracellular concentration eliciting maximal Ca2+ release upon uncaging (1321N1 astrocytoma cells [3]; 1321N1 astrocytoma cells): 10^-6 to 10^-5 M
[Ca2+]i time course after uncaging (1321N1 astrocytoma cells [3]; Ca2+ free medium): soon went back to the resting level
[Ca2+]i after UV (360 nm, 10 s) (1321N1 astrocytoma cells [4]; 20 μM): almost saturating [Ca^2+ ]i increase
[Ca2+]i time course after uncaging (1321N1 astrocytoma cells [4]): remained elevated above the resting level
[Ca2+]i time course after uncaging [5]: went back to the basal level in a short time
[Ca2+]i after UV (360 nm, 10 s) [5]: released a fair amount of Ca^2+ from internal stores
[Ca2+]i before UV [5, 7]: no effect on [Ca^2+ ]i
[Ca2+]i after UV (360 nm, 10 s) ([5]; listed as IP3 -CPM (V-1)): big [Ca^2+ ]i increase
membrane permeability (in words) (Membrane permeability): crossed the cell membrane
chemical stability vs commercially available caged IP3 (Chemical stability): chemically more stable
[Ca2+]i on photolysis (1 ms flash) ([6]; loaded 50 μM, 20 min, washed): transient increase in [Ca^2+ ]i
persistence of [Ca2+]i response to repeated flashes ([6]; loaded 50 μM, 20 min, washed): persisted for up to a dozen repetitions
[Ca2+]i on photolysis after dark storage ([6]; over 6 hours in the dark after loading): [Ca^2+ ]i increases similar to those obtained immediately after being loaded; also recorded: full-scale [Ca^2+ ]i increases
